# Where “and” joins values, the source holds several entries; their conditions need not be identical. Equal values may be shown once.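 A five-concentration, 48-hour dose response in 96-well plates underlies each endpoint, interpolated linearly between surrounding concentrations. GI50 = concentration required for 50% inhibition of growth. TGI is the concentration that stops growth completely.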
# Tests used:
# Experiment in all cases: DTP human tumour cell line panel, 48 h
# CAKI-1 renal = test system: CAKI-1 renal
# BT-549 breast = test system: BT-549 breast
# SK-MEL-2 melanoma = test system: SK-MEL-2 melanoma
# UO-31 renal = test system: UO-31 renal
# 786-0 renal = test system: 786-0 renal
# NCI-H23 lung = test system: NCI-H23 lung
# SK-OV-3 ovarian = test system: SK-OV-3 ovarian
# NCI-H226 lung = test system: NCI-H226 lung
# K-562 leukemia = test system: K-562 leukemia
# NCI-H522 lung = test system: NCI-H522 lung
SMILES,GI50 (CAKI-1 renal),TGI (CAKI-1 renal),GI50 (BT-549 breast),TGI (BT-549 breast),GI50 (SK-MEL-2 melanoma),TGI (SK-MEL-2 melanoma),GI50 (UO-31 renal),TGI (UO-31 renal),GI50 (786-0 renal),TGI (786-0 renal),GI50 (NCI-H23 lung),TGI (NCI-H23 lung),GI50 (SK-OV-3 ovarian),TGI (SK-OV-3 ovarian),GI50 (NCI-H226 lung),TGI (NCI-H226 lung),GI50 (K-562 leukemia),TGI (K-562 leukemia),GI50 (NCI-H522 lung),TGI (NCI-H522 lung)
COc1ccc(CCN2CCCN3C2=Nc2ccccc2S3(=O)=O)cc1,0.73 µM,> 100 µM,0.923 µM,92.4 µM,0.521 µM,> 100 µM,0.913 µM,> 100 µM,0.651 µM,> 100 µM,0.474 µM,> 100 µM,0.552 µM,> 100 µM,8.25 µM,> 100 µM,0.196 µM,> 100 µM,0.278 µM,8.86 µM
C=CC(=O)N1C/C(=C\c2ccccc2)C(=O)/C(=C/c2ccccc2)C1,–,6.88 µM,–,4.24 µM,–,4.81 µM,–,3.43 µM,–,2.54 µM,–,5.43 µM,–,7.58 µM,–,10.6 µM,0.174 µM,4.04 µM,0.348 µM,3.49 µM
COc1cc2c(F)nccc2cc1C(=O)N[C@@H](c1ccc(F)c(Cl)c1)[C@@H]1C[C@@H](O)CN1,0.355 µM,14.6 µM,0.487 µM,4.81 µM,11.4 µM,25.2 µM,0.491 µM,15.4 µM,0.076 µM,11.5 µM,11.1 µM,26 µM,0.268 µM,13.7 µM,5.99 µM,24.4 µM,3.87 µM,> 78.4 µM,12 µM,26.7 µM
C=C(C)[C@@H]1CC[C@]2(C(N)=O)CC[C@]3(C)[C@H](CC[C@@H]4[C@@]5(C)CC[C@H](O)C(C)(C)[C@@H]5CC[C@]43C)[C@@H]12,1.98 µM,4.98 µM,3.99 µM,19.7 µM,7.63 µM,36.8 µM,1.72 µM,3.34 µM,2.03 µM,4.61 µM,2.26 µM,5.21 µM,8.18 µM,29.8 µM,4.1 µM,17.8 µM,3.04 µM,19.4 µM,3.13 µM,16.3 µM
COc1ccc(-c2nsc3c2NC(=O)CC3c2ccc(F)cc2)cc1 (stereo not given),2.28 µM,18.4 µM,7.72 µM,> 100 µM,3.22 µM,12 µM,4.59 µM,> 100 µM,15.2 µM,> 100 µM,6.1 µM,> 100 µM,4.59 µM,> 100 µM,8.67 µM,> 100 µM,1.37 µM,> 100 µM,2.52 µM,15.6 µM
COC(=O)[C@H]1[C@@H](O)[C@@]2(O)c3c(OC)cc(O[C@@H]4O[C@@H]([C@H](O)CO)CO[C@H]4OC)cc3O[C@@]2(c2ccc(OC)cc2)[C@@H]1c1ccccc1,0.997 µM,> 1 µM,0.00434 µM,0.0322 µM,0.00354 µM,0.0158 µM,0.136 µM,0.755 µM,0.0282 µM,0.127 µM,0.00441 µM,0.0422 µM,0.00296 µM,0.0325 µM,0.00813 µM,0.078 µM,0.00386 µM,> 1 µM,0.00344 µM,0.0241 µM
C#CCSc1n[nH]c(-c2ccco2)n1,–,> 100 µM,–,> 100 µM,–,> 100 µM,–,32 µM,–,> 100 µM,–,> 100 µM,–,> 100 µM,–,> 100 µM,–,> 100 µM,–,> 100 µM
NCCCCCCCCn1c2c(c3ccccc3c1=O)C(=O)c1ccccc1-2,3.25 µM,9.03 µM,5.18 µM,23.3 µM,2.83 µM,6.98 µM,3.36 µM,12.3 µM,21 µM,56.4 µM,4.57 µM,21.6 µM,16.6 µM,39.4 µM,14 µM,34.8 µM,1.87 µM,3.67 µM,2.46 µM,6.37 µM
CC1=C(C(=O)Nc2ccccc2C)C(c2ccc(C3C(C(=O)Nc4ccccc4C)=C(C)NC(C)=C3C(=O)Nc3ccccc3C)cc2)C(C(=O)Nc2ccccc2C)=C(C)N1,–,22.7 µM,–,11.5 µM,–,31.6 µM,–,26.7 µM,–,17.3 µM,–,9.6 µM,–,28.8 µM,–,28.7 µM,–,25.4 µM,–,3.72 µM
CCN(CC)c1ccc(C2CC(c3cc(OC)c(OC)c(OC)c3)=NN2)cc1 (stereo not given),0.346 µM,–,1.03 µM,> 22.9 µM,6.6 µM,> 95.5 µM,1.5 µM,> 100 µM,0.303 µM,–,2.69 µM,> 100 µM,0.537 µM,> 100 µM,4.48 µM,> 29.7 µM,0.336 µM,> 37.6 µM,0.295 µM,5.18 µM
CCc1c2c(nc3cc4c(c(N)c13)OCO4)-c1cc3c(c(=O)n1C2)COC(=O)[C@]3(O)CC,< 0.001 µM,0.00741 µM,< 0.001 µM,4.39 µM,–,0.0424 µM,0.00128 µM,0.153 µM,–,> 100 µM,< 0.001 µM,–,< 0.001 µM,–,< 0.001 µM,0.202 µM,0.00135 µM,> 100 µM,–,1.36 µM and 0.663 µM
CNC(=O)c1c(NC(=O)c2ccc(C(F)(F)F)cc2)sc2c1CCC(=O)C2,0.388 µM,1.88 µM,0.366 µM,3.72 µM,1.36 µM,5.46 µM,0.302 µM,1.4 µM,0.415 µM,15.1 µM,0.418 µM,5.9 µM,2.26 µM,7.2 µM,1.82 µM,5.35 µM,0.193 µM,–,0.251 µM,1.92 µM
Cc1cccc(-c2nn3c(c2-c2ccnc4ccc(C(N)=O)cc24)CCC3)n1,> 100 µM,> 100 µM,> 100 µM,> 100 µM,> 100 µM,> 100 µM,> 100 µM,> 100 µM,> 100 µM,> 100 µM,> 100 µM,> 100 µM,> 100 µM,> 100 µM,> 100 µM,> 100 µM,> 100 µM,> 100 µM,> 100 µM,> 100 µM
COc1cc2c3c(c4ccc(OC)c(OC)c4c2cc1OC)CN1CCC[C@@H]1C3,–,1.1 µM,–,2.36 µM,–,0.237 µM,–,0.291 µM,–,1.78 µM,–,0.637 µM,–,2.84 µM,–,0.263 µM,–,> 100 µM,–,0.792 µM
Cc1ncc(C(=O)Nc2ccc(CN3CCN(C)CC3)c(C(F)(F)F)c2)cc1C#Cc1cnc(N)c2cnccc12,0.167 µM,1.64 µM,0.841 µM,10.7 µM,0.0243 µM,0.0941 µM,0.289 µM,1.15 µM,0.225 µM,11 µM,0.0873 µM,10.5 µM,0.162 µM,0.763 µM,0.175 µM,3.09 µM,–,1.29 µM,0.0654 µM,13.1 µM
CC1=CC(=O)CC(C)(C)C1(O)/C=C/C(C)=C/C(=O)O (stereo not given),–,> 100 µM,–,> 100 µM,–,> 100 µM,–,> 100 µM,–,> 100 µM,–,> 100 µM,–,> 100 µM,–,> 100 µM,–,> 100 µM,–,> 100 µM
C/C1=C/C(=O)O[C@@H]2C[C@@H](CC[C@H](C)/C=C\C=C\CC1)O[C@@](O)([C@@H]1CSC(=O)N1CO)C2,0.0203 µM,0.382 µM,0.0592 µM,20 µM,0.0796 µM,34.9 µM,0.0241 µM,0.132 µM,0.137 µM,12.3 µM,0.151 µM,30.4 µM,0.0504 µM,0.404 µM,0.104 µM,> 100 µM,0.213 µM,27.1 µM,0.0371 µM,2.84 µM
Sc1ccc2ccccc2c1CNCc1ccccc1,–,43.8 µM,–,48.7 µM,–,45.5 µM,–,26.9 µM,–,37 µM,–,59.7 µM,–,41.1 µM,–,12.3 µM,–,39 µM,–,18.3 µM
C[C@H](N)C(=O)N[C@@H]1[C@H]2C(=C(O)C[C@@H](O)[C@@H]2O)C(=O)O[C@]1(C)C(Cl)Cl,0.43 µM,–,0.315 µM,2.57 µM and 1.53 µM,0.308 µM,1.49 µM and 0.958 µM,0.763 µM,5.47 µM and 5.41 µM,0.246 µM,10.9 µM and 1.8 µM,0.226 µM,1.04 µM and 1.1 µM,0.2 µM,2.25 µM and 1.95 µM,0.266 µM,1.34 µM and 1.06 µM,0.229 µM and 0.233 µM,9.75 µM and 2.84 µM,0.191 µM,0.955 µM and 0.755 µM
NC(=O)/C(=C\c1ccncc1)c1cccc2ccccc12,–,> 100 µM,–,> 100 µM,–,> 100 µM,–,> 100 µM,–,> 100 µM,–,> 100 µM,–,> 100 µM,–,95.2 µM,–,> 100 µM,–,> 100 µM
CN1CCC(CNc2ccc3ncc(-c4cccc(OC(F)(F)F)c4)n3n2)CC1,1.47 µM and 1.83 µM,3.57 µM and > 10 µM,2.45 µM and 4.35 µM,10.9 µM and > 10 µM,1.64 µM and 1.76 µM,3.25 µM and 4.34 µM,1.16 µM and 1.24 µM,2.59 µM and 3.04 µM,1.78 µM and 1.69 µM,3.45 µM and 4.06 µM,2.47 µM and 3.96 µM,9.48 µM and > 10 µM,1.89 µM and 3.94 µM,4.98 µM and > 10 µM,1.82 µM and 3.62 µM,8.49 µM and > 10 µM,1.65 µM and 1.7 µM,4.95 µM and 6.01 µM,1.64 µM and 1.52 µM,3.33 µM and 3.57 µM
C[C@@H](N)C1CCC(C(=O)Nc2ccncc2)CC1 (stereo not given in full),> 40.4 µM,> 100 µM,> 88.4 µM,> 100 µM,> 100 µM,> 100 µM,> 34.1 µM,> 100 µM,> 100 µM,> 100 µM,> 100 µM,> 100 µM,> 100 µM,> 100 µM,> 100 µM,> 100 µM,> 100 µM,> 100 µM,> 100 µM,> 100 µM
CN[C@@H](C)C(=O)N[C@H]1CN(C(=O)CC(C)C)CC[C@H]2CC[C@@H](C(=O)NC(c3ccccc3)c3ccccc3)N2C1=O,> 100 µM,> 100 µM,0.231 µM,> 100 µM,43.7 µM,> 100 µM,> 100 µM,> 100 µM,> 100 µM,> 100 µM,27.6 µM,> 100 µM,0.156 µM,1.04 µM,> 100 µM,> 100 µM,97.9 µM,> 100 µM,17.6 µM,> 78.9 µM
O=C(CCCCCCCn1cc(-c2cccnc2)nn1)Nc1ccccc1-c1ccccc1,1.29 µM,> 58.4 µM,1.44 µM,25.6 µM,5.52 µM,38.1 µM,5.24 µM,47 µM,4.13 µM,> 100 µM,13.8 µM,> 100 µM,12.5 µM,> 100 µM,14.5 µM,50.2 µM,0.0633 µM,44.7 µM,0.0508 µM,–
CNC1C(O)C(OC2C(N)CC(N)C(OC3OC(CN)=CCC3N)C2O)OCC1(C)O (stereo not given),–,> 100 µM,–,> 100 µM,–,> 100 µM,–,> 100 µM,–,> 100 µM,–,> 100 µM,–,> 100 µM,–,> 100 µM,–,> 100 µM,–,> 100 µM
O=C(c1ccc(OCCN2CCCCC2)cc1)c1c(-c2ccc(O)cc2)sc2cc(O)ccc12,4.65 µM and 14.4 µM,20.6 µM and 34.1 µM,7.8 µM and 12 µM,21.5 µM and 27.9 µM,15.8 µM and 14.9 µM,35.2 µM and 33.8 µM,10.1 µM and 9.8 µM,22.3 µM and 27.7 µM,4.5 µM and 7.58 µM,18.2 µM and 27.6 µM,10.8 µM and 18.5 µM,27 µM and 45.2 µM,11.3 µM and 14.2 µM,23.3 µM and 30.4 µM,15 µM and 17 µM,29.6 µM and 34.6 µM,2.5 µM and 7.63 µM,–,11 µM and 16.5 µM,28.6 µM and 37.3 µM
COc1ccccc1-c1cc(/C=C2\C(=O)Nc3ncc(Br)cc32)cc(Br)c1O,10.1 µM,> 25 µM,14.2 µM,> 25 µM,8.89 µM,> 25 µM,4.49 µM,> 25 µM,12.2 µM,> 25 µM,10.5 µM,> 25 µM,> 21.3 µM,> 25 µM,12.5 µM,> 25 µM,9.76 µM,> 25 µM,6.1 µM,> 23.3 µM
